EP3153515A1, “COMPOUNDS FOR INHIBITING HEPATITIS C VIRUS, PHARMACEUTICAL COMPOSITIONS AND USES THEREOF” (priority 2014, dated 2015)

System: HCV NS5A replicon GT-1a
Test: HCV NS5A replicon anti-viral activity (EC50), dual-reporter Renilla luciferase, GT-1a
Format: cell-based
Conditions: Hepatitis C virus, GT1A, read-out: NS5A Inhibitory Activity (EC50 of GT-1a subtype inhibition)
Description: The autonomous replication level of HCV in liver cells in vitro is very low, and the only animal that can be infected by HCV is chimpanzee, therefore there is no appropriate animal model currently available for preclinical pharmacodynamic study. Some researchers have transplanted human liver tissue infected with HCV in vitro into immune deficient mice to establish an in vivo mice model, but these mice are hard to raise and the model is unstable and short of normal immunologic reaction. Moreover, the model has significant difference with the pathogenic process of hepatitis C, therefore, it has not been used for animal model to assess the action of anti-HCV medicine yet. The progress of the development of anti-viral drugs for the treatment of HCV infection had been very slow because the pathogenic mechanism and life cycle of HCV were unclear before 1999 due to the lack of cell culture system for effective multiplication of HCV. But researchers managed to achieve a breakthrough in 1999 after numerous attempts. An effective cell culture model-replicon system in which HCV is capable of autonomous replication in transfected human hepatic carcinoma cell line Huh-7 had been established in that year on the basis of subgenomic HCV RNA built with genetic engineering.
The above-mentioned cell culture model-replicon system which has been widely accepted in the industry is used in this invention for ex vivo experiments and subsequent assessment of drugs based on the experiment results.
The therapeutic effect of the compounds of this invention on HCV infection can be preliminarily assessed through the following preclinical in vitro inhibitory action test and can be further confirmed in clinical trials. Other methods used in the invention are also quite familiar to professionals in this field with ordinary technical knowledge. Method for testing the anti-viral activity(EC50) in HCV NS5A replicon system: • The viral replication level in infected cells was determined by testing Renilla luciferase with the newly established dual-reporter gene replicon system. There was a good linear relation between the expression level of the reporter gene and the HCV RNA replication level and viral protein expression level. The anti-viral activity was determined for 3 replicates in 3 replicate cells at five(5) 1:2 diluted concentration gradients, with 1 to 2 positive controls. The EC50 of the compounds was calculated in the end.
The compounds of the invention, or their stereoisomers, tautomers, esterified or amidated prodrugs, or pharmaceutically acceptable salts and mixtures have been subjected to test to determined their therapeutic effects in the treatment of HCV infection. […] Moreover, the results of 6a-6ep(Ia), 6fa-6gq(Ib) and reference compounds Ref-1(BMS-790052), Ref-2(GS5885), Ref-3 in HCV-NS5 inhibition test reveal that the cyclopentanyl/hexamethyleneamino radical containing linear polypeptide compounds 6a-6ep, 6fa-6gq and reference compounds Ref-1, Ref-2, Ref-3 have good HCV inhibitory results. […] The replicons GT-1a, GT-lb, GT-2a, GT-3a, GT-4a, GT-5a and GT-6a used for the test are routine replicons commercially available in this field. Table 1: HCV NS5A replicon inhibitory activity test results of compounds (6a-6gq) of the invention

SMILES	EC50 [pM]
CC(C)[C@H](NC(=O)OC(C)(C)C)C(=O)N1C[C@H](OC(=O)N2Cc3cc4c(cc3C2)OCO4)C[C@H]1c1nc(-c2ccc(-c3ccc(-c4cnc([C@@H]5C[C@@H](OC(=O)N6Cc7cc8c(cc7C6)OCO8)CN5C(=O)[C@@H](NC(=O)OC(C)(C)C)C(C)C)[nH]4)cc3)cc2)c[nH]1 [6p]	> 50000
COC(=O)N[C@H](C(=O)N1CC2(CC2)C[C@H]1c1nc(-c2ccc3c(c2)C(F)(F)c2cc(-c4ccc5[nH]c([C@@H]6[C@H]7CC[C@H](C7)N6C(=O)[C@@H](NC(=O)OC)C(C)C)nc5c4)ccc2-3)c[nH]1)C(C)C [Ref-2, GS5885, reference compound]	1 to 999

Same assay, conditions: Hepatitis C virus, GT1A; GT-1a replicon; read-out: NS5A Inhibitory Activity (EC50 of GT-1a subtype inhibition)

SMILES	EC50 [pM]
COC(=O)N[C@H](C(=O)N1CCC[C@H]1c1ncc(-c2ccc(-c3ccc(-c4cnc([C@@H]5C=CCN5C(=O)[C@@H](NC(=O)OC)C5CCCCC5)[nH]4)cc3)cc2)[nH]1)C(C)C [6di]	1 to 999
COC(=O)N[C@H](C(=O)N1CC=C[C@H]1c1ncc(-c2ccc(-c3ccc(-c4cnc([C@@H]5CC(O)CN5C(=O)[C@@H](NC(=O)OC)C(C)C)[nH]4)cc3)cc2)[nH]1)C(C)C (some centres unmarked) [6dq]	1 to 999
COC(=O)N[C@H](C(=O)N1CCC[C@H]1c1nc(-c2ccc(-c3ccc(-c4cnc([C@@H]5CC6(CN5C(=O)[C@@H](NC(=O)OC)C(C)C)OCCO6)[nH]4)cc3)cc2)c[nH]1)C(C)C [6ds]	1 to 999
COC(=O)N[C@H](C(=O)N1CC=C[C@H]1c1ncc(-c2ccc(-c3ccc4[nH]c([C@@H]5CC6(CC6)CN5C(=O)[C@@H](NC(=O)OC)C(C)C)nc4c3)cc2)[nH]1)C(C)C [6eb]	1 to 999
COC(=O)N[C@H](C(=O)N1CN(C(=O)N2Cc3ccc4c(c3C2)OCO4)C[C@H]1c1ncc(-c2ccc(-c3cccc4c(-c5cnc([C@@H]6CCCN6C(=O)[C@@H](NC(=O)OC)C(C)C)[nH]5)cccc34)cc2)[nH]1)C(C)C [6ee]	1 to 999
COC(=O)N[C@H](C(=O)N1CC=C[C@H]1c1ncc(-c2ccc(-c3cccc4c(-c5cnc([C@@H]6CCCN6C(=O)[C@@H](NC(=O)OC)C(C)C)[nH]5)cccc34)cc2)[nH]1)C(C)C [6ef]	1 to 999
COC(=O)N[C@H](C(=O)N1CC=C[C@H]1c1ncc(-c2cccc3c(-c4ccc(-c5cnc([C@@H]6CCCN6C(=O)[C@@H](NC(=O)OC)C(C)C)[nH]5)cc4)cccc23)[nH]1)C(C)C [6eg]	1 to 999
COC(=O)N[C@H](C(=O)N1CC=C[C@H]1c1ncc(-c2ccc3c(c2)OC(c2ccccc2)n2c-3cc3cc(-c4cnc([C@@H]5CCCN5C(=O)[C@@H](NC(=O)OC)C(C)C)[nH]4)ccc32)[nH]1)C(C)C (some centres unmarked) [6ej]	1 to 999
COC(=O)N[C@H](C(=O)N1CC=C[C@H]1c1nc2ccc(-c3ccc(-c4ccc5nc([C@@H]6CCCN6C(=O)[C@@H](NC(=O)OC)C(C)C)[nH]c5c4)c4c3CC3(CCCCC3)C4)cc2[nH]1)C(C)C [6en]	1000 to 49900
COC(=O)N[C@H](C(=O)N1CCC[C@H]1c1nc2ccc(-c3ccc(-c4ccc5nc([C@@H]6C=CCN6C(=O)[C@H](NC(=O)OC)c6ccccc6)[nH]c5c4)c4c3CC3(CCCCC3)C4)cc2[nH]1)C(C)C [6ep]	1000 to 49900
COC(=O)N[C@H](C(=O)N1CC=C[C@H]1c1ncc(-c2ccc(-c3csc4c(-c5c[nH]c([C@@H]6CCCN6C(=O)[C@@H](NC(=O)OC)C(C)C)n5)csc34)cc2)[nH]1)C(C)C [6fj]	1 to 999
COC(=O)N[C@H](C(=O)N1CCC[C@H]1c1nc(-c2csc3c(-c4ccc(-c5cnc([C@@H]6C=CCN6C(=O)[C@H](NC(=O)OC)c6ccccc6)[nH]5)cc4)csc23)c[nH]1)C(C)C [6fk]	1 to 999
COC(=O)N[C@H](C(=O)N1CCC[C@H]1c1ncc(-c2cc3oc(-c4ccc(-c5cnc([C@@H]6C=CCN6C(=O)[C@H](NC(=O)OC)c6ccccc6)[nH]5)cc4)cc3s2)[nH]1)C(C)C [6fp]	1 to 999
COC(=O)N[C@H](C(=O)N1CC=C[C@H]1c1ncc(-c2ccc(-c3cc4sc(-c5cnc([C@@H]6CCCN6C(=O)[C@H](NC(=O)OC)c6ccccc6)[nH]5)cc4o3)cc2)[nH]1)C(C)C [6fq]	1 to 999
COC(=O)N[C@@H](C(=O)N1CC=C[C@H]1c1ncc(-c2ccc(-c3cc4sc(-c5cnc([C@@H]6CCCN6C(=O)[C@H](NC(=O)OC)c6ccccc6)[nH]5)cc4o3)cc2)[nH]1)c1ccccc1 [6fr]	1 to 999
COC(=O)N[C@H](C(=O)N1CC=C[C@H]1c1nc(-c2csc3c(-c4ccc(-c5cnc([C@@H]6CCCN6C(=O)[C@H](NC(=O)OC)c6ccccc6)[nH]5)cc4)csc23)c[nH]1)C(C)C [6ft]	1 to 999
COC(=O)N[C@H](C(=O)N1CCC[C@H]1c1nc2ccc(-c3csc4c(-c5ccc(-c6cnc([C@@H]7C=CCN7C(=O)[C@H](NC(=O)OC)c7ccccc7)[nH]6)c(F)c5)csc34)cc2[nH]1)C(C)C [6fu]	1 to 999
COC(=O)N[C@H](C(=O)N1CCC[C@H]1c1nc2ccc(-c3csc4c(-c5ccc(-c6cnc([C@@H]7C=CCN7C(=O)[C@H](NC(=O)OC)c7ccc(C)cc7)[nH]6)cc5)csc34)cc2[nH]1)C(C)C [6fw]	1 to 999
COC(=O)N[C@H](C(=O)N1CC=C[C@H]1c1nc2ccc(-c3csc4c(-c5ccc(-c6cnc([C@@H]7CCCN7C(=O)[C@H](NC(=O)OC)c7ccccc7)[nH]6)cc5)csc34)cc2[nH]1)C(C)C [6fy]	1 to 999
COC(=O)N[C@H](C(=O)N1CC=C[C@H]1c1nc2ccc(-c3csc4c(-c5ccc(-c6cnc([C@@H]7CCCN7C(=O)[C@@H](NC(=O)OC)C(C)C)[nH]6)cc5)csc34)cc2[nH]1)C(C)C [6fz]	1 to 999
COC(=O)N[C@H](C(=O)N1CCC[C@H]1c1ncc(-c2ccc(-c3csc4c(-c5ccc6nc([C@@H]7C=CCN7C(=O)[C@H](NC(=O)OC)c7ccccc7)[nH]c6c5)csc34)cc2)[nH]1)C(C)C [6ga]	1 to 999
COC(=O)N[C@H](C(=O)N1CC=C[C@H]1c1nc2ccc(-c3cc4sc(-c5cnc([C@@H]6CCCN6C(=O)[C@@H](NC(=O)OC)C(C)C)[nH]5)cc4s3)cc2[nH]1)C(C)C [6gh]	1 to 999
COC(=O)N[C@H](C(=O)N1CCC[C@H]1c1ncc(-c2csc3c(-c4ccc5nc([C@@H]6C=CCN6C(=O)[C@H](NC(=O)OC)c6ccccc6)[nH]c5c4)csc23)[nH]1)C(C)C [6gj]	1 to 999
COC(=O)N[C@@H](C(=O)N1CC=C[C@H]1c1nc2ccc(-c3csc4c(-c5cnc([C@@H]6CCCN6C(=O)[C@H](NC(=O)OC)c6ccccc6)[nH]5)csc34)cc2[nH]1)c1ccccc1 [6gk]	1 to 999
COC(=O)N[C@H](C(=O)N1CC=C[C@H]1c1nc2ccc(-c3csc4c(-c5cnc([C@@H]6CCCN6C(=O)[C@@H](NC(=O)OC)C(C)C)[nH]5)csc34)cc2[nH]1)C(C)C [6gm]	1 to 999
COC(=O)N[C@H](C(=O)N1CC=C[C@H]1c1nc2ccc(-c3csc4c(-c5cnc([C@@H]6CCCN6C(=O)[C@H](NC(=O)OC)c6ccccc6)[nH]5)csc34)cc2[nH]1)C(C)C [6gn]	1 to 999
COC(=O)N[C@H](C(=O)N1CCC[C@H]1c1nc2ccc(-c3csc4c(-c5ccc(-c6ccc7nc([C@@H]8C=CCN8C(=O)[C@H](NC(=O)OC)c8ccccc8)[nH]c7c6)cc5)csc34)cc2[nH]1)C(C)C [6gq]	1 to 999
COC(=O)N[C@H](C(=O)N1CCC[C@H]1c1nc(-c2ccc(-c3ccc(-c4c[nH]c([C@@H]5C[C@@H](Oc6nc7ccccc7nc6-c6cccs6)CN5C(=O)[C@@H](NC(=O)OC)C(C)C)n4)cc3)cc2)c[nH]1)C(C)C [6w]	> 50000
COC(=O)N[C@H](C(=O)N1CCC[C@H]1c1nc(-c2ccc(-c3ccc(-c4c[nH]c([C@@H]5C[C@H](Oc6nc7ccccc7nc6-c6cccs6)CN5C(=O)[C@@H](NC(=O)OC)C(C)C)n4)cc3)cc2)c[nH]1)C(C)C [6x]	1 to 999
COC(=O)N[C@@H](C(=O)N1CCC[C@H]1c1ncc(-c2ccc(-c3cc4sc(-c5cnc([C@@H]6CCCN6C(=O)[C@H](NC(=O)OC)c6ccccc6)[nH]5)cc4s3)cc2)[nH]1)c1ccccc1 [Ref-3, reference compound]	1 to 999

Same assay, conditions: Hepatitis C virus, genotype 1a / genotype 6a, read-out: Inhibitory activity against various HCV-NS5A subtypes(EC50, GT-1a to GT-6a) GT-1a

SMILES	EC50 [pM]
COC(=O)N[C@H](C(=O)N1CC=C[C@H]1c1nc2ccc(-c3csc4c(-c5ccc(-c6cnc([C@@H]7CCCN7C(=O)[C@@H](NC(=O)OC)C(C)C)[nH]6)cc5)csc34)cc2[nH]1)C(C)C [6fz]	7
COC(=O)N[C@H](C(=O)N1CC=C[C@H]1c1ncc(-c2ccc(-c3csc4c(-c5ccc6nc([C@@H]7CCCN7C(=O)[C@@H](NC(=O)OC)C(C)C)[nH]c6c5)csc34)cc2)[nH]1)C(C)C [6gd]	4
COC(=O)N[C@H](C(=O)N1CC2(CC2)C[C@H]1c1nc(-c2ccc3c(c2)C(F)(F)c2cc(-c4ccc5[nH]c([C@@H]6[C@H]7CC[C@H](C7)N6C(=O)[C@@H](NC(=O)OC)C(C)C)nc5c4)ccc2-3)c[nH]1)C(C)C [Ref-2, GS5885, reference compound]	88
COC(=O)N[C@@H](C(=O)N1CCC[C@H]1c1ncc(-c2ccc(-c3cc4sc(-c5cnc([C@@H]6CCCN6C(=O)[C@H](NC(=O)OC)c6ccccc6)[nH]5)cc4s3)cc2)[nH]1)c1ccccc1 [Ref-3, reference compound]	51

Same assay, conditions: comparison drawn from Table 2

SMILES	inhibitory activity compared with Ref-1(BMS-790052), Ref-2(GS5885), Ref-3 and Ref-4 (in words)
COC(=O)N[C@H](C(=O)N1CC=C[C@H]1c1nc2ccc(-c3csc4c(-c5ccc(-c6cnc([C@@H]7CCCN7C(=O)[C@@H](NC(=O)OC)C(C)C)[nH]6)cc5)csc34)cc2[nH]1)C(C)C [6fz]	significantly superior
COC(=O)N[C@H](C(=O)N1CC=C[C@H]1c1ncc(-c2ccc(-c3csc4c(-c5ccc6nc([C@@H]7CCCN7C(=O)[C@@H](NC(=O)OC)C(C)C)[nH]c6c5)csc34)cc2)[nH]1)C(C)C [6gd]	significantly superior
